Experimental findings from patent US5536740A, “Skin care compositions containing dimethyl imidazolidinone and retinol or retinyl ester” (priority 1995, dated 1996) are described below.

One assay concerns Human keratinocytes. The assay can be described thus: 3H-thymidine incorporation assay of keratinocyte proliferation. Type of assay: cell-based. The protocol: (§1) Human keratinocytes, isolated from neonatal foreskin by trypsin treatment were grown in Dulbecco Modification Eagle (DME) Hams F12 (1:1) medium/10% fetal calf serum in the presence of irradiated 3T3 mouse fibroblasts for establishing dividing keratinocyte colonies. Cells were grown under the above condition until their second passage and kept frozen for future use. […] On day 7, when the cells were 80-90% confluent, they were trypsinized and plated in the serum-free medium for the various experiments.
^3 H-Thymidine Incorporation and Keratinocyte Proliferation
The incorporation of ^3 H-thymidine by cultured keratinocytes was used as an assay of keratinocyte proliferation. Thymidine is one of four deoxynucleosides which are the monomeric units of DNA, the universal library of genetic information in the animal kingdom. Prior to cell division of a somatic cell such as a keratinocyte, the complete genome of the cell undergoing cell division is replicated. This involves large scale DNA synthesis by the cell and enables both daughter cells to receive identical copies of the genetic material. When ^3 H-thymidine is included in the culture media of keratinocytes which are synthesizing DNA in preparation for cell division then the labelled nucleoside is incorporated into the newly synthesized DNA. The extent of incorporation of ^3 -thymidine into a population of cells is proportional to the rate of DNA synthesis by this population of cells and therefore an indication of their cellular proliferation.
Keratinocytes (that were cultured as described above) were plated in 24 well plates at a density of 40,000 cells per well in 1 ml media. After incubation for four days or until the cells were 60-70% confluent, the media was changed. Test compounds were added (in triplicate) to the wells 24 hours after the media change, and four hours later 1 μCi^3 H-Thymidine in 50 μl media was added per well. Cells were incubated for a further 24 hours. Media was removed from the cells, 10% ice cold trichloroacetic acid (TCA) added and plates were incubated on ice for 30 minutes. Cells were washed five times with 5% TCA and allowed to dissolve in 500 μl 0.1M NaOH for at least one hour (usually overnight). The preparations were neutralized with 0.1M HCl; 50 μl of the cell preparation was used to determine total protein content. Disintegrations per minute (DPM) from a H labelling of DNA was determined by liquid scintillation counting of 900 μl of the cell preparation. Thymidine incorporation results were expressed as DPM/μg protein.

The test system of assay [1] is TGase I in human keratinocytes. The assay can be described thus: ELISA based transglutaminase I (TGase I) assay of keratinocyte differentiation. Type of assay: cell-based. On the procedure:
as §1
Transglutaminase Assay and Keratinocyte Differentiation
During the process of terminal differentiation in the epidermis, a 15 nm thick layer of protein, known as the cornified envelope (CE) is formed on the inner surface of the cell periphery. The CE is composed of numerous distinct proteins which have been cross-linked together by the formation of N^ε -(γ-glutamyl)lysine isodipeptide bonds catalyzed by the action of at least two different transglutaminases (TGases) expressed in the epidermis. TGase 1 is expressed in abundance in the differentiated layers of the epidermis, especially the granular layer, but is absent in the undifferentiated basal epidermis. Thus TGase I is a useful marker of epidermal keratinocyte differentiation with high TGase I levels indicating a more differentiated state. An ELISA based TGase I assay, using a TGase I antibody, was used to assess the state of differentiation of the cultured keratinocytes in the examples that follow.
Keratinocytes (cultured as described above) were plated in 96 well plates at a density of 3,000 cells per well in 200 μl media. After incubation for four days the media was changed to media containing test compounds (six replicates per test). The cells were cultured for a further 72 hours after which time the media was aspirated and the plates stored at -70° C. Plates were removed from the freezer, and the cells washed with PBS. 100 μl sterile water was added and the cells were freeze fractured by freezing at -70° C. then thawing. The cells were incubated for one hour at room temperature (R/T) with PBS/3% BSA (wash buffer, bovine serum albumin), then rinsed with a fresh aliquot of wash buffer. Cells were incubated with 50 μl of primary antibodies monoclonal anti-human transglutaminase (IgG) obtained from Amersham (mouse) diluted 1:300 in wash buffer for one hour, 37° C. then rinsed two times with wash buffer. Cells were then incubated with 50 μl of secondary antibody (Feb fragment, peroxidase conjugated anti-mouse IgG obtaining from Amersham) diluted 1:200 in wash buffer for one hour at 37° C., then rinsed two times with wash buffer. Cells were incubated with substrate solution (4 mg o-phenylene diamine and 3.3 μl 30% H2 O2 in 10 ml 0.1M citrate buffer pH 5.0) for five minutes, R/T, in darkness (under aluminum foil). The reaction was stopped by the addition of 50 μl 4N […]. The absorbance of samples was read at 492 nm in the plate reader. Out of the six replicates, four were treated with both antibodies, two were treated only with the secondary antibody (i.e., to determine background binding of enzyme conjugated Ab). TGase levels were determined by subtracting background from the readings from each treatment and determining mean ±s.d. for the replicates exposed to both Ab.
The level of TGase-1 was normalized to DNA content of the cells in the same well thus eliminating variation due to differences in cell number. DNA quantitation is a particularly useful indicator of cell number, including keratinocyte cell number, because each cell has to all intents and purposes an identical genome and therefore an identical quantity of DNA. The total DNA content of a well of cells therefore is directly proportional to the cell number in that well. Quantitation of DNA was used to normalize the TGase data to cell number.
Keratinocytes were plated in 96 well plates at a density of 3,000 cells per well in […] media.
On the technique in general: ELISA stands for enzyme-linked immunosorbent assay.

On to `CCCCCCCCCCCCCCCC(=O)OC/C=C(C)/C=C/C=C(C)/C=C/C1=C(C)CCCC1(C)C` [Retinyl Palmitate (RP), retinyl palmitate], for which, in the assay with Human keratinocytes, the “effect on keratinocyte proliferation (in words)” value is listed as “completely ineffective at increasing keratinocyte proliferation”. For the same compound, the “mean Thymidine incorp/μg protein ± s.d” value in the assay with Human keratinocytes (Example 4, 2.5 × 10^-8 M, 24 hours, n = 3) was found to be 3386 ± 326 DPM/μg protein. The activity at 0.025 µM was found to be 97% in the assay on Human keratinocytes (Homo sapiens, Keratinocyte, Example 4, 2.5 × 10^-8 M, 24 hours, n = 3, read-out: mean Thymidine incorp/μg protein (% control)) and 79% in assay [1] (Homo sapiens, Keratinocyte, 72 h, Example 4, 2.5 × 10^-8 M, n = 3, read-out: mean TGase (% control)). The “effect on keratinocyte TGase level / differentiation (in words)” value in assay [1] is “significantly less effective than retinoic acid at inhibiting keratinocyte differentiation”. Also, the “mean TGase ± s.d” value in assay [1] (Example 4, 2.5 × 10^-8 M, n = 3) was found to be 0.790 ± 0.387.
